Assays:
[1] = test system: THP1 Dual cells (ISRE Lucia reporter, cGAS-STING pathway); assay: THP1 monocyte assay, ISRE Lucia luciferase reporter; format: cell-based, human; settings: 48 hours, luciferase signal versus control wells without compound
Text: Example C is a cell-based assay for TREX1 inhibitors using THP1 Dual™ cells (Invivogen), a human monocyte cell line that has stable integration of an Interferon Stimulated Response Element (ISRE) Lucia reporter gene. The Lucia gene encodes a secreted luciferase reporter protein, under the control of an ISG54 minimal promoter in conjunction with five IFN-stimulated response elements. Activation of the cGAS-STING pathway in THP1 Dual™ cells leads to enhanced luciferase secretion and increased luminescence.
A cell-based assay was established using THP1 Dual™ cells (Invivogen), a human monocyte cell line that has stable integration of an Interferon Stimulated Response Element (ISRE) Lucia reporter gene. The Lucia gene encodes a secreted luciferase reporter protein, under the control of an ISG54 minimal promoter in conjunction with five IFN-stimulated response elements. Activation of the cGAS-STING pathway in these cells leads to enhanced luciferase secretion. The assay was conducted in standard 384-well white tissue culture plates. Cells (25,000 in 25 μL RPMI 1640 containing 10% Heat-Inactivated FBS, 1× Glutagro, 10 mM HEPES, 1 mM sodium pyruvate, 1× Pen/Strep, 100 μg/mL Normocin, 100 μg/mL Zeocin, 10 μg/mL Blasticidin) were added to the plate followed by 25 μL of compound in the same media+0.2% DMSO. The assay was incubated for 48 hours at 37° C. in 5% CO2. An aliquot of 5 μl was removed to combine with 12.5 μL of the luciferase detection reagent, QUANTI-Luc™ Gold (Invivogen) in a white 384-well plate. The luminescent signal was then read using an EnVision plate reader (Perkin Elmer). The fold activation was calculated by dividing the signal in wells containing test compound by the signal in the control wells without compound (see Table 7).

[2] = test system: interferon stimulated genes (ISGs) in THP1 Dual cells; assay: RT-qPCR assay of interferon stimulated gene expression; format: cell-based, human; settings: substance alone, 24 hours, normalized to GAPDH, unstimulated control = 1
Text: Example D is a cell based assay that measures the increase in the expression of interferon stimulated genes (ISG) by RT-qPCR that are induced by TREX1 inhibitors when THP1 Dual™ cells are transfected with double-stranded DNA. The double stranded DNA used to transfect cells was VACV-70 (Invivogen), a 70 base pair oligonucleotide containing viral DNA motifs (Unterholzner L. et al., 2010. IFI16 is an innate immune sensor for intracellular DNA. Nat Immunol. 11(11):997-1004). Activation of cGAS-STING pathway in THP1 Dual™ cells increases the expression of ISGs.
The RT-qPCR assay was used to assess the ability of TREX1 inhibitors to enhance the expression of interferon stimulated genes (ISGs) in cells transfected with double-stranded DNA. The double stranded DNA used to transfect cells was VACV-70 (Invivogen), a 70 base pair oligonucleotide containing viral DNA motifs (Unterholzner L. et al., 2010. IFI16 is an innate immune sensor for intracellular DNA. Nat Immunol. 11(11):997-1004). Human THP1 Dual™ cells (Invivogen), were treated with test compound in the presence or absence of 1,200 ng/mL VACV-70, or with VACV-70 alone, for 24 hours. Cells were harvested by centrifugation and washed with phosphate buffer saline. Total RNA was isolated using Qiagen RNeasy mini kit. Genomic DNA was degraded using Thermo Scientific DNase 1 kit. Total RNA was quantified using a Nanodrop spectrophotometer. Using equal amounts of RNA, cDNA was synthesized using Invitrogen Superstrand III First Strand synthesis kit. Target and reference gene expression levels were determined by RT-qPCR using TaqMan gene expression assays and a Stratagene Mx3005P QPCR system (all reagents were from TaqMan, Applied Biosystems). Data were analyzed by the Comparative CT method. GAPDH was used for normalization. Target genes that were analyzed included interferon stimulated genes (INF-β, CXCL10, IFIT1, IFIT2, IFIT3, IFI44, and IFI44L).

With `N[C@@H]1C[C@H]2C(=O)N([C@H](CCC(=O)O)C(=O)NCc3ccc(Cl)c(Cl)c3)CCC(CCc3ccccc3)N2C1` (some centres unmarked) [Example 14B] the “Fold activation @ 10 μM” value [1] was 12, the CXCL10 expression [2] was 2 and the IFI44L expression [2] was 65. For the same compound, the IFI44 expression [2] was 54, the IFIT1 expression [2] was 19 and the IFIT2 expression [2] was 44. For the same compound, the IFIT3 expression [2] was 25 and the IFN-β expression [2] was 7.

— patent US11306098B2, “Substituted pyrrolo[1,2-a]pyrazines and pyrrolo[1,2-a][1,4]diazepines as TREX1 inhibitors” (VENENUM BIODESIGN, LLC, priority 2019, dated 2022)
